Molecular target: T1, eIF2Bγ (in eIF2B complex) (Saccharomyces cerevisiae, UniProt P09032)
T1 construct: gene GCD1; purified eIF2B complex; with eIF2Bε (GCD6) and the other eIF2B subunits
Assay: competition filter binding against […]-GTP

T1 sequence (P09032 whole entry): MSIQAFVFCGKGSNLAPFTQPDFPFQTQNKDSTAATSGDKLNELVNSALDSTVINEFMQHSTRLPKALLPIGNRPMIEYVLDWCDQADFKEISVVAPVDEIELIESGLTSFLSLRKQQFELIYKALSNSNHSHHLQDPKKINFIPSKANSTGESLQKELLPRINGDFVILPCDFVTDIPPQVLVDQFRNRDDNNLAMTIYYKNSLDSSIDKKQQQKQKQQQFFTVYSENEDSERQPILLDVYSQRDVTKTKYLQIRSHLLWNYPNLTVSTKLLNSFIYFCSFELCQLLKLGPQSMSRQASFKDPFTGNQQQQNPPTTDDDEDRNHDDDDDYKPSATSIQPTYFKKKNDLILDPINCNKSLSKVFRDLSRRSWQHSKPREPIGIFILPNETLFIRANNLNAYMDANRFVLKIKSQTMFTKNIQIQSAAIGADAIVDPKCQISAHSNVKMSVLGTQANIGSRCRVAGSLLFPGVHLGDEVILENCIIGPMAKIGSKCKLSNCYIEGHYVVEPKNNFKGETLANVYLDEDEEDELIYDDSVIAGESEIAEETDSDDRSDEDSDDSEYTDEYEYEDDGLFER
T1 sequence (P32501 whole entry partner): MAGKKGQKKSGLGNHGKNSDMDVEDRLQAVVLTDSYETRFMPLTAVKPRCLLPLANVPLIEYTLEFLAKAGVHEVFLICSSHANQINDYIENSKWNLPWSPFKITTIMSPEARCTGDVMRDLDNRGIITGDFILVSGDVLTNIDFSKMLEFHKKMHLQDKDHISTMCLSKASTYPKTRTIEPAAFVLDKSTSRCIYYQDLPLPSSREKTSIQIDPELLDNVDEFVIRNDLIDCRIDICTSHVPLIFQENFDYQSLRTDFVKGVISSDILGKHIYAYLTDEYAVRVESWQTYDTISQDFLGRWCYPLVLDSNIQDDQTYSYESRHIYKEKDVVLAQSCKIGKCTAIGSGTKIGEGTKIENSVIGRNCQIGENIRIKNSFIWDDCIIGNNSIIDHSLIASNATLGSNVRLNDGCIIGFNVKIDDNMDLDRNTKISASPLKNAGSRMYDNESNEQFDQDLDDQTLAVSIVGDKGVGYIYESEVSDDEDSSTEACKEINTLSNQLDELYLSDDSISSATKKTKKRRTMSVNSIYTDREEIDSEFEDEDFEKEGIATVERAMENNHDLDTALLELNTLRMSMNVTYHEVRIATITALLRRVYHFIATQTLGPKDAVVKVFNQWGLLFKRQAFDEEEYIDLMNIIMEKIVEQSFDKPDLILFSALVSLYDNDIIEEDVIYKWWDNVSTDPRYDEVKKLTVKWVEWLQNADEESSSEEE
T1 sequence (P14741 2-305 partner): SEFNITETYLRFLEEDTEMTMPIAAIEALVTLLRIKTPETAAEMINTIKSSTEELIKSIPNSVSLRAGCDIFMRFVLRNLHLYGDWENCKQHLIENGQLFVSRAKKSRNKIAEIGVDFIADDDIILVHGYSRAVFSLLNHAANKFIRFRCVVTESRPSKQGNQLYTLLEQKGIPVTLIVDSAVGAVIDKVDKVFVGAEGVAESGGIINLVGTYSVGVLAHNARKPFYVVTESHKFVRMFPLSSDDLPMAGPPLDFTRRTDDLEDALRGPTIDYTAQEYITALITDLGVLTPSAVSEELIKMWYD
T1 sequence (P32502 whole entry partner): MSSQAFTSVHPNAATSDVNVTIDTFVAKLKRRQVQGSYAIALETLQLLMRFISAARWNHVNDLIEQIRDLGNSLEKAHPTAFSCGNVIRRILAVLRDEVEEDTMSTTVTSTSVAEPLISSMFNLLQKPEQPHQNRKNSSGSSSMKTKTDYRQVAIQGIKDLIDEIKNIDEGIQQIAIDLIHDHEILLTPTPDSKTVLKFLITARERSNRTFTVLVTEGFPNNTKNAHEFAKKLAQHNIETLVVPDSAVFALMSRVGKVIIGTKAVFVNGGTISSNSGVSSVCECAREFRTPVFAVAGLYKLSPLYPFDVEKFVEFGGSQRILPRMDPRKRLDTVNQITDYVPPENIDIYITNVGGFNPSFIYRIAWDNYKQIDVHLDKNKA
T1 sequence (P12754 2-651 partner): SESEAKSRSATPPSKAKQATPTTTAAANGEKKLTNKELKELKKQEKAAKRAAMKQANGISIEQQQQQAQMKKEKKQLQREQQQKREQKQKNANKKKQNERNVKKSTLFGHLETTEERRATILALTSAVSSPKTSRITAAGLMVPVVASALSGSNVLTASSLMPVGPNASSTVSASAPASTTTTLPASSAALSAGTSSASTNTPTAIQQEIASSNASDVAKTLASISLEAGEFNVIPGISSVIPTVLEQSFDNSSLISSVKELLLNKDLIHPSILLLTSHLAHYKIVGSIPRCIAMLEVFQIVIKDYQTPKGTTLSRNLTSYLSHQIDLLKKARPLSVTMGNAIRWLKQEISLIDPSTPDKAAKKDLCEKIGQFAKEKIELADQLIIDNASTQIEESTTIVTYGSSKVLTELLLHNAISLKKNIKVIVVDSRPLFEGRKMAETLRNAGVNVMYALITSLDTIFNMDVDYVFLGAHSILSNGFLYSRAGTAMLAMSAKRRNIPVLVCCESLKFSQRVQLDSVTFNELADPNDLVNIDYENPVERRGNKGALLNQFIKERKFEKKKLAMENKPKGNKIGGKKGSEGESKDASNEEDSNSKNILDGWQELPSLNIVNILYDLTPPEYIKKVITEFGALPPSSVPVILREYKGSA

Nc1ncnc2c1ncn2[C@@H]1O[C@H](COP(=O)(O)OP(=O)(O)OP(=O)(O)O)[C@@H](O)[C@H]1O [ATP]
competition filter binding against 32P-GTP: suggesting eIF2B can bind both ATP and GTP, but with a preference for GTP

Nc1nc2c(ncn2[C@@H]2O[C@H](COP(=O)(O)OP(=O)(O)O)[C@@H](O)[C@H]2O)c(=O)[nH]1 [GDP]
competition filter binding against 32P-GTP: GTP was a more effective competitor than ATP or GDP

— publication PMC8633983, “GTP binding to translation factor eIF2B stimulates its guanine nucleotide exchange activity” (iScience, 2021)
